Experimental data as given in the NIST ThermoML archive (doi:10.1021/je900442b).

Key:
[1] = 101 kPa, Liquid
[2] = xn = mol fraction of the nth substance listed; settings: 101 kPa, Liquid

CO [methanol]
[1]
Settings	mass density [kg/m3]	speed of sound [m/s]
298.15 K	786.38	1109
303.15 K	781.65	1092
308.15 K	776.52	1074
313.15 K	772.15	1060

CC(=O)OC(C)(C)C [1,1-dimethylethyl ethanoate] + CO
[2]
Settings	mass density, 298.15 K [kg/m3]	mass density, 303.15 K [kg/m3]	mass density, 308.15 K [kg/m3]	mass density, 313.15 K [kg/m3]	speed of sound, 298.15 K [m/s]	speed of sound, 303.15 K [m/s]	speed of sound, 308.15 K [m/s]	speed of sound, 313.15 K [m/s]
x1 = 0.1004	806.42	801.36	796.06	791.34	1107	1090	1069	1055
x1 = 0.1997	819.95	814.66	809.27	804.29	1105	1089	1065	1052
x1 = 0.2996	829.79	824.37	818.91	813.75	1105	1089	1063	1051
x1 = 0.3916	836.73	831.21	825.7	820.41	1104	1088	1061	1049
x1 = 0.5003	843.12	837.52	831.98	826.57	1103	1087	1059	1048
x1 = 0.5988	847.72	842.05	836.48	831	1102	1086	1057	1046
x1 = 0.6994	851.57	845.85	840.26	834.72	1100	1085	1055	1045
x1 = 0.7985	854.72	848.96	843.36	837.77	1097	1083	1053	1043
x1 = 0.8992	857.43	851.65	846.04	840.4	1094	1080	1051	1041
x1 = 1	859.75	853.94	848.34	842.67	1091	1078	1049	1040

CO [methanol] + CCCCOC(C)=O
[2], x2 = 0
Settings	mass density [kg/m3]	speed of sound [m/s]
298.15 K	786.38	1109
303.15 K	781.65	1092
308.15 K	776.52	1074
313.15 K	772.15	1060

CCCCOC(C)=O [butyl ethanoate] + CO
[2]
Settings	mass density, 298.15 K [kg/m3]	mass density, 303.15 K [kg/m3]	mass density, 308.15 K [kg/m3]	mass density, 313.15 K [kg/m3]	speed of sound, 298.15 K [m/s]	speed of sound, 303.15 K [m/s]	speed of sound, 308.15 K [m/s]	speed of sound, 313.15 K [m/s]
x1 = 0.1004	810.58	805.75	800.39	795.84	1130	1112	1092	1076
x1 = 0.2329	831.49	826.61	821.09	816.38	1151	1132	1111	1093
x1 = 0.2996	839.18	834.29	828.66	823.89	1160	1140	1118	1100
x1 = 0.4008	848.46	843.52	837.84	833.02	1171	1151	1128	1109
x1 = 0.498	855.46	850.52	844.77	839.91	1179	1159	1136	1116
x1 = 0.5988	861.3	856.34	850.55	845.66	1185	1165	1141	1122
x1 = 0.6994	866.05	861.1	855.28	850.36	1189	1170	1145	1126
x1 = 0.7912	869.71	864.74	858.91	853.98	1191	1172	1148	1128
x1 = 0.8992	873.3	868.38	862.52	857.58	1191	1173	1149	1130
x1 = 1	876.18	871.27	865.41	860.46	1190	1173	1150	1131

CO [methanol] + CC(=O)OC(C)(C)C
[2], x2 = 0
Settings	mass density [kg/m3]	speed of sound [m/s]
298.15 K	786.38	1109
303.15 K	781.65	1092
308.15 K	776.52	1074
313.15 K	772.15	1060

CC(=O)OC(C)(C)C [1,1-dimethylethyl ethanoate]
[1]
Settings	mass density [kg/m3]	speed of sound [m/s]
298.15 K	859.75	1091
303.15 K	853.94	1078
308.15 K	848.34	1049
313.15 K	842.67	1040

CCCCOC(C)=O [butyl ethanoate]
[1]
Settings	mass density [kg/m3]	speed of sound [m/s]
298.15 K	876.18	1190
303.15 K	871.27	1173
308.15 K	865.41	1150
313.15 K	860.46	1131
